Bridge positions count the residues as written; N and C are the ends. Square brackets hold non-standard residues; d marks the D form. Peptide text beside a SMILES is read from it. * marks the point of attachment. Ileψ(thiazoline)Cys = CC[C@H](C)[C@H](N)C1=N[C@H](C(=O)*)CS1; dOrn = NCCC[C@@H](N)C(=O)O
Key:
[1] = tested on: broiler chickens; assay: Broiler chicken feed conversion experiment (Example 1, with microbiome seed chickens); assay type: in vivo, chickens (male Ross×Ross); settings: for feed conversion (total consumed feed / total weight gain): days 0 through day 32
Description: The primary objective of this experiment was to evaluate if supplementation of feed with mifamurtide at 1.9 mg/kg feed improves feed conversion in broiler chickens, i.e., if broiler chickens require less feed for the same amount of gain in body weight. A secondary objective was to evaluate whether any such improvement compares favorably or unfavorably to improvement seen with bacitracin, an industry standard AGP. A third objective was to evaluate if fast versus slow acquisition of a healthy microbial flora (microbiome) by the experimental chickens influenced feed conversion. A fourth objective was to determine whether feed supplementation with bacitracin, a commonly used industry-standard antibiotic growth promoter, interacted with a potential influence of microbiome acquisition kinetics on feed conversion.
Two hundred day-of-hatch male Ross×Ross chicks were randomly assigned at 50 each to one of four groups: 1 negative control without microbiome seed chickens; 2 negative control with microbiome seed chickens; 3 bacitracin at 50 mg/kg of feed with microbiome seed chickens; or 4 mifamurtide at 1.9 mg/kg of feed with microbiome seed chickens. The mifamurtide was first mixed with 20 g Lactose (Lactochem Fine Powder, DFE Pharma, Germany), then mixed with corn meal to produce a 2% supplement to prepare the feed, which was fed to the birds ad libitum.
The microbiome seed chickens were healthy 21-day-old birds that had been raised on litter of fresh unused pine shavings, and had not been in contact with any other chickens, and thus had microbiomes characteristic of healthy grown birds. At start of the experiment, groups 2-4 of 50 study chicks were exposed to 10 microbiome seed chickens, which were removed on day 5 and were not counted in study results. The objective of the microbiome seed chickens was to rapidly induce a healthy microbiome in the freshly hatched experimental chickens. In contrast, the development of a normal healthy microbiome required more time in the control group without exposure to microbiome seed chickens.
All chicks were reared with a normal broiler starter in mash form, supplemented with amprolium at 113.5 mg/kg. Each group was raised in 5×10 feet floor pens at a stocking density of 1.0 square foot per bird on fresh pine shavings, in a solid-sided barn, with concrete floors, and under ambient humidity. Feed and water were available ad libitum throughout the trial. Thermostatically controlled gas heaters were the primary heat source for the barn, if needed. One heat lamp per pen provided supplemental heat during brooding. Fans were used to cool birds. […] Individual body weights of all birds were recorded on days 8, 21, and 32. […]
The overall (true) feed conversion for each group was determined by dividing total consumed feed by total weight gains of all chickens of the group. […] Calculated feed consumed by birds that died before termination of the experiment was subtracted from total weighed feed. Body weight gain and calculated feed consumption data were analyzed by one-way ANOVA and Tukey Honest True Difference correction for multiple comparisons, and graphs show means±95% confidence intervals. For determination of feed conversion of individual birds, calculated total feed consumption per bird was divided by total weight gain of the bird. […] Group differences in feed conversion were evaluated by non-parametric Mann Whitney U test, and error bars indicate 25-75 percentiles of calculated feed conversions of individual birds. […]

[2] = tested on: broiler chickens; assay: Broiler chicken growth and feed conversion experiment (Example 2, without microbiome seed chickens); assay type: in vivo, chickens (male Cobb×Cobb); settings: for growth rate (percent body weight gain) / increased growth over the 236.2% rate of untreated control chickens: day 15 to 32; for feed conversion relative to untreated control chickens: no microbiome seed chickens
Description: The objective of the experiment was to compare the effect of 1) a low dose of 0.1 mg mifamurtide/kg feed; and 2) an intermediate dose of 0.57 mg romurtide/kg feed, a different MDP analog, to 50 mg bacitracin/kg feed and non-supplemented feed (untreated control chickens). Both the effect on feed conversion and on growth rates, i. e. the dual criteria for growth promotion, were examined.
Two-hundred day-of-hatch male Cobb×Cobb chickens were randomly assigned at 50 each to one of four groups: no feed supplementation; bacitracin at 50 mg/kg of feed; mifamurtide at 0.1 mg/kg of feed; or romurtide at 0.57 mg/kg of feed. Microbiome seed chickens were not used, and individual body weights of all birds were recorded on days 15 and 32. All other experimental parameters followed Example 1.

[3] = tested on: pigs; assay: Pig feed conversion experiment (Example 3); assay type: in vivo; settings: for feed conversion (total consumed feed / total weight gain): day 0 through day 26
Description: The objective of the experiment for Example 3 was to evaluate if MDP analogs promote growth in mammals as they do in birds. Pigs were selected as an animal model for the mammalian study. This experiment was designed to contrast the effect of a low dose of 0.1 mg mifamurtide/kg feed on growth and feed conversion to untreated control pigs and to pigs treated with 50 mg carbadox/kg feed, an industry-standard AGP used in pigs.
Pigs were weaned at 3-4 weeks of age and allotted based on weight and gender to one of 15 nursery pens with 6 pigs per pen (90 total pigs). Sex of the pigs was balanced within pens in a weight block. Dietary treatments were randomly assigned within weight blocks to pens of pigs. Three dietary treatments were administered in the phase 1 and 2 diets. Phase 1 diets were fed from day 0-14 post-weaning. On day 14 post-weaning, pigs were switched to phase 2 diets, which were fed until day […]. Treatment 1 was the untreated negative control diet without any growth-promoting supplement. […] Feed intake was monitored for each pen and weigh period. […]
The overall (true) feed conversion for each group was determined by dividing total consumed feed by total weight gains of all pigs of each treatment. […] Body weight gain and calculated feed consumption data were analyzed by one-way ANOVA and Tukey Honest True Difference correction for multiple comparisons. For determination of feed conversion of individual pigs, calculated total feed consumption of each pig was divided by total measured weight gain of the pig. […] Group differences in feed conversion were evaluated by non-parametric Mann Whitney U test.
Individual daily feed consumption per pig was computed by a mathematical model from individual body weights determined over the course of the 26-day experiment, and from total weighed feed consumed by each pen. […] The model first linearly interpolates body weights between the actual measured body weights of the pigs. Based on the calculated daily body weight, the daily feed consumption is then calculated as 4% of body weight. […]

## CC[C@H](C)[C@H](N)C1=N[C@H](C(=O)N[C@@H](CC(C)C)C(=O)N[C@H](CCC(=O)O)C(=O)N[C@H](C(=O)N[C@H]2CCCCNC(=O)[C@H](CC(N)=O)NC(=O)[C@@H](CC(=O)O)NC(=O)[C@H](Cc3cnc[nH]3)NC(=O)[C@@H](Cc3ccccc3)NC(=O)[C@H]([C@@H](C)CC)NC(=O)[C@@H](CCCN)NC2=O)[C@@H](C)CC)CS1 [bacitracin] ({Ileψ(thiazoline)Cys}-L[dE]IK[dOrn]I[dF]H[dD]N; lactam 4-C)
[1]; 50 mg/kg bacitracin treated, microbiome-seeded chickens
  improvement in feed conversion over non-microbiome seeded untreated chickens: 15.6%
[1]; bacitracin at 50 mg/kg feed, with microbiome seed chickens, days 0-32
  more feed required than mifamurtide supplementation (1.9 mg/kg feed) for the same amount of weight gain: 13.6%
[1]; bacitracin at 50 mg/kg feed, with microbiome seed chickens
  feed conversion (total consumed feed / total weight gain): 1.823
[2]; bacitracin at 50 mg/kg feed
  body weights on days 15 and 32, body weight gains and feed intake versus the three other treatments: significantly lower
  feed conversion rates versus the three other treatments: higher feed conversion rates
[2]; bacitracin at 50 mg/kg feed, optimal husbandry, absence of a pathogenic microflora
  effect on growth and feed conversion: profoundly negative effect

## COC(=O)N/N=C/c1c[n+]([O-])c2ccccc2[n+]1[O-] [carbadox]
[3]; carbadox 50 mg/kg feed until day 14, 25 mg/kg feed after day 14
  more feed required for the same amount of weight gain than treatment with 0.1 mg/kg feed mifamurtide: 14.6%
[3]; carbadox 50 mg/kg feed until day 14, 25 mg/kg feed after day 14, weaned pigs
  feed conversion (total consumed feed / total weight gain): 1.692

## CCCCCCCCCCCCCCCCCC(=O)NCCCC[C@H](NC(=O)CC[C@@H](NC(=O)[C@H](C)NC(=O)[C@@H](C)O[C@H]1[C@H](O)[C@@H](CO)OC(O)[C@@H]1NC(C)=O)C(N)=O)C(=O)O (some centres unmarked) [romurtide]
[2]; romurtide at 0.57 mg/kg feed
  growth rate (percent body weight gain): 267.4%
  increased growth over the 236.2% rate of untreated control chickens: 13.2%
[2]; romurtide at 0.57 mg/kg feed, optimal husbandry
  feed conversion relative to untreated control chickens: did not decrease feed conversion

## mifamurtide
[1]; 1.9 mg mifamurtide/kg feed, with microbiome seed chickens
  feed conversion (total consumed feed / total weight gain): 1.605 g feed/g body weight gain
[1]; mifamurtide 1.9 mg/kg feed, day 0 through day 32 (FIG. 1B)
  total feed consumed per chicken versus negative controls: consumed less feed
[2]; mifamurtide at 0.1 mg/kg feed
  growth rate (percent body weight gain): 259.5%
  increased growth over the 236.2% rate of untreated control chickens: 9.9%
[2]; mifamurtide at 0.1 mg/kg feed, optimal husbandry
  feed conversion relative to untreated control chickens: did not decrease feed conversion
[3]; 0.1 mg mifamurtide/kg feed, weaned pigs
  feed conversion (total consumed feed / total weight gain): 1.476

Source: patent publication US20190191740A1, “Methods to Promote Growth and Improve Feed Conversion in Animals” (Nutrivert LLC, priority 2016, published 2019)
